These results are taken from BindingDB's records for doi:10.1021/acs.jmedchem.7b01344 (Metabasis Therapeutics, 2017).

Broadly, the IC50 is the concentration needed to halve the response being measured.

Experiment [1] concerns the target Prostaglandin D2 receptor 2 (CRTH2) (Homo sapiens) (UniProt Q9Y5Y4). Briefly: Binding affinity to DP2 receptor (unknown origin).
Experiment [2] has the same target. Kind of experiment: Binding affinity to DP2 receptor (unknown origin) in presence of 10% human serum.

Sequence of Prostaglandin D2 receptor 2 (CRTH2) (Homo sapiens) (Q9Y5Y4 whole entry, looked up): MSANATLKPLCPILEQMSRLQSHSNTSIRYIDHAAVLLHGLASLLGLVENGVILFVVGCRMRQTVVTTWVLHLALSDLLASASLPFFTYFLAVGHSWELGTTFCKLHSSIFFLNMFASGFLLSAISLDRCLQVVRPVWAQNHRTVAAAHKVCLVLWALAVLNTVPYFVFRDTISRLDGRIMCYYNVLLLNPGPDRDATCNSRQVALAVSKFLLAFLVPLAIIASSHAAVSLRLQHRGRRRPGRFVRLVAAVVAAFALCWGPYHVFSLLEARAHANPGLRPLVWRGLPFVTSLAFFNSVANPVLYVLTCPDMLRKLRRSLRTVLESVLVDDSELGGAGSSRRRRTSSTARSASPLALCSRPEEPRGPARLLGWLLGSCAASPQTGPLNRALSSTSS

As for `Cc1ccc(Oc2nc3cc(-c4ccc(-c5ccccc5)cc4)c(Cl)cc3[nH]2)cc1C(=O)O`, the IC50 in experiment [1] was 1800 nM; in experiment [2] it was > 86000 nM.
